The values that follow come from patent US8906925B2, “Pyrido[4,3-B]indoles containing rigid moieties” (Medivation Technologies, Inc., priority 2008, dated 2014).

By inhibition is commonly meant the drop in the measured response relative to a control, in per cent.

One data set has as its system male Wistar rat. Description: Conditioned avoidance response (CAR) model. The data set is classed as in vivo. To be noted: 0.3 mg/kg, s.c. Here is the method:
All currently approved antipsychotic agents (typical and atypical) are known to have the ability to selectively suppress conditioned avoidance response (CAR) behavior in the rat. This evidence makes CAR one of the primary tests to assess antipsychotic activity of novel compounds.
The effects of Compound Nos. 83, 88 and 90, at concentrations including 0.1, 0.3, 1, 3, 10 and 20 mg/kg, p.o., in the conditioned avoidance response model were assessed in the male Wistar rat. Risperidone (0.3 mg/kg, s.c.) was used in the present study as a positive reference compound.
For each testing session, animals were first placed for a 4-min. habituation period in a shuttlebox with an electrified grid floor. Then, rats were submitted to 30 trials spaced by intertribal intervals varying at random between 20 and 30 sec. Each trial consisted of a 10-sec. light stimulus (conditioned stimulus, CS) followed by a 10-sec. electric foot shock (unconditioned stimulus, US) in presence of the light presented in the compartment where the rat is located. If the animal moved to the other compartment during the initial 10-sec. of the trial, the light was terminated (no shock was delivered) and the response was recorded as an avoidance response. If the rat changed compartment during the foot shock, the light and the shock were terminated and the response was recorded as an unconditioned response. […] If a response was made during an intertrial interval, the response was recorded as an intertrial crossing. Training was performed 5 days per week with one session of 30 trials per day, until rats reached the performance criterion of 80% of avoidance response on at least two consecutive daily sessions. […] A minimal wash-out period of 48 hours was allowed between 2 treatments. During the wash-out period, animals were trained until they recovered an avoidance performance of at least 80%.
Statistical analysis was performed using a Friedman two-way ANOVA by ranks followed by the Wilcoxon matched-pairs signed-ranks test to test each dose of the test compound administered versus vehicle control treated rats.

In another data set the target is histamine receptor H1 (Homo sapiens, UniProt P35367). The data set is described as follows: Histamine H1 radioligand binding ([3H]Pyrilamine). To be noted: for inhibition at 1 µM: read-out: Histamine Binding (1 μM) H1, percent inhibition of specific binding, 1 μM. Summed up:
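Values are percent inhibition of specific [3H]pyrilamine (1.2 nM) binding with compounds at ≤1 μM (1% DMSO vehicle); 180 min incubation at 25 °C, pH 7.4 Tris buffer, on CHO-expressed human H1 receptor; 1 μM pyrilamine defined nonspecific binding, bound ligand counted after filtration.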

Data set [1] concerns the target T1, human recombinant histamine H2 receptor (Homo sapiens, UniProt P25021).
T1 construct: expressed in transfected cells; host or cells: Chinese hamster ovary (CHO) K1 cells
Description: Histamine H2 radioligand binding ([125I]Aminopotentidine). To be noted: read-out: Histamine Binding (1 μM) H2, percent inhibition of specific binding, 1 μM. Summed up:
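CHO-K1 cells expressing human recombinant H2 receptor, 50 mM phosphate buffer pH 7.4; compounds incubated with 0.1 nM [125I]aminopotentidine for 120 min at 25 °C. Nonspecific binding defined with 3 μM tiotidine; specifically bound radioligand counted after filtration and washing.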

Data set [2] deals with human dopamine D2L receptor (Homo sapiens, UniProt P14416). The data set is described as follows: Dopamine D2L radioligand binding ([3H]Spiperone). To be noted: percent inhibition of specific binding, compound at 1 μM; for Inhibition of ligand binding, Dopamine D2L: 1 µM; for inhibition at 1 µM: read-out: Inhibition of ligand binding, Dopamine D2L. The text has this:
Non-specific binding was estimated in the presence of […] Haloperidol. Receptor proteins were filtered and washed, the filters were then counted to determine [^3H]Spiperone specifically bound. […] Biochemical assay results are presented as the percent inhibition of specific binding in Table 9.

Data set [3] addresses T2, human recombinant serotonin (5-Hydroxytryptamine) 5-HT2A receptor (Homo sapiens, UniProt P28223).
T2 construct: expressed in transfected cells; host or cells: Chinese hamster ovary (CHO-K1) cells
The data set is described as follows: Serotonin 5-HT2A radioligand binding ([3H]Ketanserin). Conditions: for inhibition at 0.1 µM: read-out: Inhibition of ligand binding, Serotonin 5-HT2A (percent inhibition of specific binding), compound at 0.1 μM; for inhibition at 1 µM: read-out: Inhibition of ligand binding, Serotonin 5-HT2A (percent inhibition of specific binding), compound at 1 μM. The procedure:
Compounds of the invention were incubated with 0.5 nM [^3H]Ketanserin for 60 min. at 25° C. Non-specific binding was estimated in the presence of 1 μM Mianserin. Receptor proteins were filtered and washed, the filters were then counted to determine [^3H]Ketanserin specifically bound.

The target of data set [4] is T3, human recombinant serotonin (5-Hydroxytryptamine) 5-HT2C receptor (Homo sapiens, UniProt P28335).
T3 construct: expressed in transfected cells; host or cells: Chinese hamster ovary (CHO-K1) cells
T3 sequence (P28335 33-458): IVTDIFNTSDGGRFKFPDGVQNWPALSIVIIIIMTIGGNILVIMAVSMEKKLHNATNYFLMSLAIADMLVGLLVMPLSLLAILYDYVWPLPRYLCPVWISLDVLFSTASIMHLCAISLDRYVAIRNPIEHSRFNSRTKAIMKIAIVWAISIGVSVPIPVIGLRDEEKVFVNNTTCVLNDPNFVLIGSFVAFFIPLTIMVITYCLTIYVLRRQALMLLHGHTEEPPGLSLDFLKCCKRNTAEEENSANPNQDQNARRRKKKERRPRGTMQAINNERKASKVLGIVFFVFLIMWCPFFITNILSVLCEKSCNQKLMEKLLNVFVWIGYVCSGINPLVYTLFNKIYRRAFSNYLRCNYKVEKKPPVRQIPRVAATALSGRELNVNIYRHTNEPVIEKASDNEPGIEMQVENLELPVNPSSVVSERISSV
The data set is described as follows: Serotonin 5-HT2C radioligand binding ([3H]Mesulergine). Conditions: read-out: Inhibition of ligand binding, Serotonin 5-HT2C (percent inhibition of specific binding); for inhibition at 0.1 µM: compound at 0.1 μM; for inhibition at 1 µM: compound at 1 μM. The essentials:
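Compounds tested at 1 μM or lower (1% DMSO vehicle) for displacement of 1 nM [3H]Mesulergine over 60 min at 25° C. Specific binding determined by filtration counting, with 1 μM Mianserin defining non-specific binding; values are percent inhibition.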

Data set [5] concerns the target T4, human recombinant serotonin (5-Hydroxytryptamine) 5-HT6 receptor (Homo sapiens, UniProt P50406).
T4 construct: expressed in transfected cells; host or cells: human HeLa cells
Description: Serotonin 5-HT6 radioligand binding ([3H]LSD). To be noted: read-out: Inhibition of ligand binding, Serotonin 5-HT6 (percent inhibition of specific binding); for inhibition at 0.1 µM: compound at 0.1 μM; for inhibition at 1 µM: compound at 1 μM. Here is the method:
Compounds of the invention were incubated with 1.5 nM [3H]Lysergic acid diethylamide (LSD) for 120 min. at 37° C. […] Receptor proteins were filtered and washed, the filters were then counted to determine [3H]LSD specifically bound. Compounds were screened at 1 μM or lower, using 1% DMSO as vehicle. Biochemical assay results are presented as the percent inhibition of specific binding in Table 10.

The target in data set [6] is human recombinant serotonin (5-Hydroxytryptamine) 5-HT7 receptor (Homo sapiens, UniProt P34969). The data set is described as follows: Serotonin 5-HT7 radioligand binding ([3H]LSD). To be noted: read-out: Inhibition of ligand binding, Serotonin 5-HT7 (percent inhibition of specific binding); for inhibition at 0.1 µM: compound at 0.1 μM; for inhibition at 1 µM: compound at 1 μM. The text has this:
Receptor proteins were filtered and washed, the filters were then counted to determine [^3H]LSD specifically bound.

The target in data set [7] is T5, human recombinant serotonin 5-HT1B receptor (Homo sapiens, UniProt P28222).
T5 construct: expressed in transfected cells; host or cells: CHO-K1 cell line, membrane extracts
Description: 5-HT1B radioligand binding competition assay ([3H]5-CT, CHO-K1 membranes). Conditions: 5 μM, in duplicate, average. The procedure: To determine the binding activity at the human recombinant serotonin 5-HT1B receptor of compounds of the invention, CHO-K1 cell line expressing the human 5-HT1B recombinant receptor was amplified to prepare membranes used for the radioligand binding assay throughout the study. Radioligand binding competition on 5-HT1B was performed by adding successively in the wells of a 96 well plate (Master Block, Greiner, 786201). […] The plate was incubated 60 min at 25° C. in a water bath and then filtered over GF/B filters (Perkin Elmer, 6005177, presoaked in 0.5% PE1 for 2 h at room temperature) with a Filtration unit (Perkin Elmer). The filters were washed 3× with 0.5 mL of ice-cold washing buffer (50 mM Tris pH 7.4). 50 μL Microscint 20 (Packard) was added and the plate was incubated 15 min on an orbital shaker and then counted with a TopCount™ for 1 min/well.
The reference value thus obtained for the test was compared to a historical value obtained from the same receptor and used to validate the experimental session. […] For replicate determinations, the maximum variability tolerated in the test was of +/−20% around the average of the replicates.
Compounds were tested for binding activity in the radioligand binding competition assay on human 5-HT1B receptor, at one concentration […], in duplicate. Dose-response data from test compounds were analyzed with XLfit (IDBS) software using nonlinear regression applied to a sigmoidal dose-response model.
Dose-response data was analyzed with XLfit (IDBS) software using non-linear regression applied to a sigmoidal dose-response model.

The subject of another data set is C57B1I6J mice. The data set is described as follows: Catalepsy in the mouse bar test (EPS model). The data set is classed as in vivo. Conditions: 2 mg/kg i.p. The text has this: Antipsychotic drugs are known to induce extrapyramidal syndrome (EPS) in animals and in humans. An animal model considered to be predictive of EPS is the mouse bar test, which measures cataleptic responses to pharmacological agents.
Male C57B1I6J mice from Jackson Laboratories (Bar Harbor, Me.) were used. Mice were received at 6-weeks of age. Upon receipt, mice were assigned unique identification numbers (tail marked) and were group housed with 4 mice/cage in OptiMICE ventilated cages. All animals remained housed in groups of four during the remainder of the study. All mice were acclimated to the colony room for at least two weeks prior to testing and were subsequently tested at an average age of 8 weeks. During the period of acclimation, mice were examined on a regular basis, handled, and weighed to assure adequate health and suitability. Animals were maintained on a 12 h/12 h light/dark cycle. The room temperature was maintained between 20 and 23° C. with a relative humidity maintained between 30% and 70%. Chow and water were provided ad libitum for the duration of the study. In each test, animals were randomly assigned across treatment groups.
The following compounds were used for this study. 1) Compound No. 83, 88 or 90 (0.03, 0.1, 0.3, 1, 3, 10, 30) was dissolved in 3% Tween in PBS and administered orally at a dose volume of 10 mL/kg; 2) Haloperidol (2 mg/kg) was dissolved in 10% DMSO and administered i.p. at a dose volume of 10 mL/kg.
The front paws of a mouse were placed on a horizontal metal bar raised 2″ above a Plexiglas platform and time was recorded for up to 30 seconds per trial. The test ended when the animal's front paws returned to the platform or after 30 seconds. The test was repeated three times and the average of the three trials was reported as the intensity index of catalepsy. Antipsychotic agents such as haloperidol cause rigidity as a side effect. Animals treated with haloperidol will hold on to the bar without moving for several minutes. Mice were brought to the activity experimental room for at least 1 h acclimation to the experimental room conditions prior to testing. Following injection of either vehicle, Compound No. 83, 88 or 90, or haloperidol, catalepsy was assessed at 3 time points: 30 min, 1 h, and 3 h. At the end of each trial, the apparatus was thoroughly cleaned with 70% ethanol.
Data were analyzed by analysis of variance (ANOVA) followed by post-hoc comparisons with Fisher Tests when appropriate. An effect was considered significant if p<0.05.

human dopamine D2L receptor, sequence (P14416 whole entry): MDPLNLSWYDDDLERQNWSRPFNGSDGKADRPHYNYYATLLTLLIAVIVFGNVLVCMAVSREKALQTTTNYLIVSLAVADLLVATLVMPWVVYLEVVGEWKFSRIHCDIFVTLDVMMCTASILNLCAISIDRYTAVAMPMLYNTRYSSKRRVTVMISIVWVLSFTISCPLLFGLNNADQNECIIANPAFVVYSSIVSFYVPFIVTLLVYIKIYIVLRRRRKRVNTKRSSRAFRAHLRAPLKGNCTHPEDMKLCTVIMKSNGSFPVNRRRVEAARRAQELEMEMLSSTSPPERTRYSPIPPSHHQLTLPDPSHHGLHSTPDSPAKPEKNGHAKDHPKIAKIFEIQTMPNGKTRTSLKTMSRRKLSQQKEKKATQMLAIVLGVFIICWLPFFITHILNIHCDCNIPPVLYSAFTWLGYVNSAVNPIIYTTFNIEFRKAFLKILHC
human recombinant serotonin (5-Hydroxytryptamine) 5-HT7 receptor, sequence (P34969 whole entry): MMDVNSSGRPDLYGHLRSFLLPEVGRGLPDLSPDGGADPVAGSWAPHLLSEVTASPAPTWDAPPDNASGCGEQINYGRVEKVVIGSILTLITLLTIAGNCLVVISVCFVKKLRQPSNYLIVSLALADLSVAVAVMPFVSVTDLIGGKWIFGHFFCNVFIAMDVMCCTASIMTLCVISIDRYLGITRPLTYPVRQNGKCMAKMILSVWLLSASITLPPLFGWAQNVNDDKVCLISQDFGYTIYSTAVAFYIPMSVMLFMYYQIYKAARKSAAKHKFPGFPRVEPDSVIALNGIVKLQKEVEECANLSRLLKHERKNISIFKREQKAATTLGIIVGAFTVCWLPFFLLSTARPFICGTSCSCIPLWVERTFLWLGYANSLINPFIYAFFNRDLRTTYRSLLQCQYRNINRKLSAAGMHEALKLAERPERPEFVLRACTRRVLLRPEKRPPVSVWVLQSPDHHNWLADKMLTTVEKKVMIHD
T4 sequence (P50406 whole entry): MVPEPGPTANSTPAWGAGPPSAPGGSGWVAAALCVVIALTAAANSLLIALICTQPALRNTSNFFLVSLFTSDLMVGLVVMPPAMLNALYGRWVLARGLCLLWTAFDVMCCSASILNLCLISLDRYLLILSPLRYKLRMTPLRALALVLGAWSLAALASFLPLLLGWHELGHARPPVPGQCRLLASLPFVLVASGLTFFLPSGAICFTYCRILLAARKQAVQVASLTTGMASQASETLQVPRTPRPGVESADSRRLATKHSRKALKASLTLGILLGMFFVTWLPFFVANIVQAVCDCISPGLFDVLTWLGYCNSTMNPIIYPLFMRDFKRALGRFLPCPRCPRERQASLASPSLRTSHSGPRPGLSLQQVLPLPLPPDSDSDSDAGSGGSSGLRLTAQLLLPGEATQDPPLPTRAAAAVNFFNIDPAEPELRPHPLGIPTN
histamine receptor H1, sequence (P35367 whole entry): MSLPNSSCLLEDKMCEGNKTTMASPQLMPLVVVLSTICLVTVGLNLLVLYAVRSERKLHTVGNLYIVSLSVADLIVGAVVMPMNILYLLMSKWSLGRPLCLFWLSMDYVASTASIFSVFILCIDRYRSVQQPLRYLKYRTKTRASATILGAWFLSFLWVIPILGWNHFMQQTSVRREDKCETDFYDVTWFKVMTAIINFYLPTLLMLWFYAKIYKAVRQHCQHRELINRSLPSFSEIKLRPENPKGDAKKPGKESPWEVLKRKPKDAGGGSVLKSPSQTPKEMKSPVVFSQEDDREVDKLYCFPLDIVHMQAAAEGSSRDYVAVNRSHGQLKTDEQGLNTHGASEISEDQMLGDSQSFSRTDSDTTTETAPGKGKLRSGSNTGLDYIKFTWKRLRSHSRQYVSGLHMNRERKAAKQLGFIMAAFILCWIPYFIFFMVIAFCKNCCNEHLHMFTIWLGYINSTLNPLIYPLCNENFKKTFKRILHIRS
T2 sequence (P28223 whole entry): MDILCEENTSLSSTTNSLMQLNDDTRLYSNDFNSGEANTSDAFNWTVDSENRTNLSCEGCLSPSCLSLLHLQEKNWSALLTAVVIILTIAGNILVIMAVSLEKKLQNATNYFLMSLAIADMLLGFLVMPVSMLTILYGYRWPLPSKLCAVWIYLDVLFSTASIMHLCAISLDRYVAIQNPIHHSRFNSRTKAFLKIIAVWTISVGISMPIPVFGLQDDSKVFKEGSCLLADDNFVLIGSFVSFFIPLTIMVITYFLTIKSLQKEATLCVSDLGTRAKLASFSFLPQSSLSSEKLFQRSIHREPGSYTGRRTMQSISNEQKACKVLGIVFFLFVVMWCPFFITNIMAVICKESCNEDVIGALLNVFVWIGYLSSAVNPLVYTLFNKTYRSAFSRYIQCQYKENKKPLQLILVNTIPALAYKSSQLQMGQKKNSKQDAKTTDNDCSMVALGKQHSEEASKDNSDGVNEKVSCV
T1 sequence (P25021 whole entry): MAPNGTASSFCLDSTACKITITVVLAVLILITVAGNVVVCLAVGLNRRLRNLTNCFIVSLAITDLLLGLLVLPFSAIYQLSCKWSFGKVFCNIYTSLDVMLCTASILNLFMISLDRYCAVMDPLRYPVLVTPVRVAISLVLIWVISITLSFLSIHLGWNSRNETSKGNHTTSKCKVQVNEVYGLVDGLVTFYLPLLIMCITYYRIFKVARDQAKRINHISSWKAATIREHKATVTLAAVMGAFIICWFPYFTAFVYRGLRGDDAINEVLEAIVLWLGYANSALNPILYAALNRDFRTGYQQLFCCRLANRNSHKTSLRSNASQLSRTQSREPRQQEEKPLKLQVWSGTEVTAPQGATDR
T5 sequence (P28222 whole entry): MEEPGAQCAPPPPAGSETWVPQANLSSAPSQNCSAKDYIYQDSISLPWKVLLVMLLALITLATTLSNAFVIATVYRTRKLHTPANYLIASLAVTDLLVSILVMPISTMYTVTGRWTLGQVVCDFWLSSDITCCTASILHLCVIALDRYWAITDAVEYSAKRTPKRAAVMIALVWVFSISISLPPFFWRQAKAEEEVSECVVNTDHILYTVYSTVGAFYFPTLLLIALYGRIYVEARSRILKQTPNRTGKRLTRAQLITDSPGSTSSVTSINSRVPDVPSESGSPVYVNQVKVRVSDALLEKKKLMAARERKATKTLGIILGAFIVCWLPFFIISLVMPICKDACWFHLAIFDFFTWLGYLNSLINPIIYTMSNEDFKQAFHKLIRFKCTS

On to `Cc1nc2n(c(=O)c1CCN1CCC(c3noc4cc(F)ccc34)CC1)CCCC2` [risperidone, reference compound], for which, in the data set with male Wistar rat, the “number of avoidance responses, change versus pretreatment” value is −61% and the “number of intertrial crossings, change versus pretreatment” value is on record as −69%. Further, in the data set with male Wistar rat (increased in 7/12 animals, 0±0 before treatment), the “number of escape failures” value was 4±1 escape failures.
On to `C/C(=C/n1c2c(c3cc(C)ccc31)CN(C)CC2)c1ccncc1` [Compound 224, (Z)-2,8-dimethyl-5-(2-(pyridin-4-yl)prop-1-enyl)-2,3,4,5-tetrahydro-1H-pyrido[4,3-b]indole], for which the “Histamine Binding (1 μM) H1, percent inhibition of specific binding” value at histamine receptor H1 was 26%. The inhibition at 1 µM on histamine receptor H1 came out at 24%; in data set [1], 58%; in data set [2], 65%; in [3] it was 99%; in data set [4], 97%; in [5], 102%. Also, the inhibition at 1 µM in data set [6] came to 91%. The “Inhibition of ligand binding, Dopamine D2L” value in [2] amounted to 80%. For the same molecule, the inhibition at 0.1 µM in data set [3] came to 92%; in data set [4], 95%; in data set [5], 96%; in data set [6], 88%. For the same molecule, the “5-HT1B (5 μM) % Binding relative to bound radioligand” value in [7] was 10%.
Consider `O=C(CCCN1CCC(O)(c2ccc(Cl)cc2)CC1)c1ccc(F)cc1` [Haloperidol, haloperidol, reference compound], for which, in the data set with C57B1I6J mice, the “catalepsy (bar test)” value is on record as “increased catalepsy”.
With `C/C(=C\n1c2c(c3cccc(F)c31)CN(C)CC2)c1ccncc1` [Compound 223, (E)-6-fluoro-2-methyl-5-(2-(pyridin-4-yl)prop-1-enyl)-2,3,4,5-tetrahydro-1H-pyrido[4,3-b]indole], the “Histamine Binding (1 μM) H1, percent inhibition of specific binding” value at histamine receptor H1 is on record as 11%. Also, the inhibition at 1 µM came out at 6% at histamine receptor H1; 44% in [1]; 96% in data set [2]; 95% in data set [3]; 93% in data set [4]; 103% in data set [5]. Besides, in data set [6], the inhibition at 1 µM stood at 91%. Moreover, the “Inhibition of ligand binding, Dopamine D2L” value in data set [2] came out at 97%. Moreover, the inhibition at 0.1 µM in [3] amounted to 97%; in data set [4], 81%; in data set [5] it was 104%; in data set [6], 67%. For the same molecule, the “5-HT1B (5 μM) % Binding relative to bound radioligand” value in data set [7] stood at 4%.
